Laboratory results reported in patent publication US20260078144A1, “ACTIVE PEPTIDE, AND COMPOSITION AND USE THEREOF” (WINKEY TECHNOLOGY USA INC, priority 2023, published 2026).

What was measured:
Type in all cases: cell-based
[1] = system: Human keratinocytes (HaCaT); experiment: Photoaging experiment (UV-irradiated HaCaT, MTT); conditions: 80 mJ/cm^2 UV, 24 h, compared with the UV group, FIG. 7
Procedure: (§1) Human keratinocytes (HaCaT) were purchased from the Kunming Cell Bank of China Center for Type Culture Collection under the Chinese Academy of Sciences.
Polypeptide group: Peptide (26), peptide (33), peptide (39) and peptide (49). The test concentrations of all the above samples were 1 ppm, 10 ppm, 50 ppm, 100 ppm, and 200 ppm.
(§2) Cells in good exponential growth phase were taken. A 0.25% trypsin digestion solution was added so that digestion allowed the adherent cells to fall off, counting 1 to 4×10^5 cells/mL, which were prepared into a cell suspension.
The cell suspension was properly diluted and inoculated into a 96-well plate at 10,000 cells/well. When the cells reached approximately 80% confluence, a UV photoaging model was established. In the blank control group, 50 μL of PBS was added, and supplemented with the culture medium to 200 μL, while no UV irradiation was performed. For the UV group and the polypeptide groups, a proper amount of PBS was added to wash the culture repeatedly until colorless, followed by adding 50 μL of PBS and irradiating under an 80 mJ/cm^2 UV light. The distance between the light source and the culture bottle was 15 cm. After irradiation, the PBS was removed. In the UV group, a PBS solution and the culture medium were added to 200 μL; in the polypeptide groups, the culture medium and the samples diluted in a certain ratio were added to 200 μL. The blank control group, the UV group, and the polypeptide groups were further incubated in a 5% CO2 incubator at 37° C. for 24 h.
Then 22 μL of 5 mg/mL MTT was added to each well and the incubation was continued in the 5% CO2 incubator at 37° C. for 4 h. The original solution was removed and 150 µL/well of DMSO was added. After shaking the plate on a plate shaker for 5 min, a microplate reader was used to read the reference OD values at wavelengths of 490 nm and 630 nm.
Skin aging is affected by endogenous and exogenous factors, such as genetics, environmental exposure, UV irradiation, hormonal changes, etc. The accumulation of these factors, especially exposure to UV irradiation, leads to changes in structure, function and appearance of the skin. In this experiment, 80 mJ/cm^2 UV energy was selected for radiation to establish a skin photoaging model.

[2] = system: Human skin fibroblasts (HSF); experiment: Collagen content assay (collagen I ELISA, UV photoaging model); conditions: 100 ppm, UV-irradiated HSF, 48 h, FIG. 10
Procedure: (§3) Human skin fibroblasts (HSF) were purchased from the Shanghai Cell Bank of China Center for Type Culture Collection under the Chinese Academy of Sciences.
Polypeptide group: Palmitoyl pentapeptide-4 (Palm-Lys-Thr-Thr-Lys-Ser-OH), peptide (26), peptide (32), peptide (33), peptide (39), and peptide (49), all at a test concentration of 100 ppm;
HSF cells in good exponential growth phase were taken. A 0.25% trypsin digestion solution was added so that digestion allowed the adherent cells to fall off, counting 1 to 4×10^6 cells/mL, which were prepared into a cell suspension.
The cell suspension was inoculated into a 6-well plate at 10^5 cells/well. A UV photoaging model was established when the cells reached approximately 80% confluence. In the blank control group, 200 μL of PBS was added, supplemented with the culture medium to 800 μL, while no UV irradiation was performed. For the UV group and the polypeptide groups, a proper amount of PBS was added to wash the culture repeatedly until colorless, followed by adding 200 μL of PBS and irradiating under an 80 mJ/cm^2 UV light. The distance between the light source and the culture bottle was 15 cm. After irradiation, the PBS was removed. In the UV group, a PBS solution and culture medium were added to 800 μL; in the polypeptide groups, the culture medium and the samples diluted in a certain ratio were added to 800 μL. The blank control group, the UV group, and the polypeptide groups were further incubated in a 5% CO2 incubator at 37° C. for 48 h.
After completion of the culture, the cells were scraped off using a cell scraper, mixed by pipetting, and the cell protein was extracted using RIPA and quantified to 1 mg/mL with BCA. The procedure was performed according to the operation instructions of collagen I ELISA. The OD value of each well was measured in sequence at 450 nm using a microplate reader within 15 min.
Collagen is the most abundant protein found in connective tissue, and provides plumpness and firmness to the skin. […] In this experiment, UV-irradiated cells were treated with test samples, and the content of collagen I in corresponding cells was detected to determine whether the peptide of the present invention can promote collagen synthesis.

[3] = system: Human skin fibroblasts (HSF); experiment: Cell proliferation assay (MTT) on HSF cells; conditions: 72 h, FIG. 6
Text: as §3
Polypeptide group: Peptide (26), peptide (33), peptide (39) and peptide (49). The test concentrations of all the above samples were 1 ppm, 10 ppm, 50 ppm, 100 ppm, 200 ppm, 500 ppm and 1000 ppm.
Blank control group: PBS.
Positive control group: 2% DMSO.
as §2
The cell suspension was inoculated into a 96-well plate with 200 µL/well, and cultured in a constant-temperature CO2 incubator for 24 h. […]
20 μL of 5 mg/mL MTT was added to each well and the incubation was continued in the 5% CO2 incubator at 37° C. for 4 h. […] After shaking the plate on a plate shaker for 5 min, a microplate reader was used to determine the OD value of each well at a wavelength of 570 nm, and the cell viability was calculated.
The MTT assay is a method of detecting cell survival and growth. The measured OD values are directly proportional to cell viability. […]

[4] = system: Human keratinocytes (HaCaT); experiment: Cell scratch assay; conditions: 24 h, FIG. 8; for order of effects on promoting the proliferation and migration of HaCaT cells: 50-100 ppm
Procedure: as §1
Polypeptide group: Peptide (26), peptide (33), peptide (39) and peptide (49). The test concentrations of all the above samples were 50 ppm and 100 ppm.
Positive control group: 50 U/mL of EGF.
A bottle of HaCaT cells in good exponential growth phase was taken. A 0.25% trypsin digestion solution was added so that digestion allowed the adherent cells to fall off, counting 1 to 4×10^5 cells/mL, which were prepared into a cell suspension.
The cells were inoculated into a 24-well plate at a density of 150,000 cells/well, with 2 mL cell suspension per well. After the cells attached to the wall and grew to 100% confluence, the culture medium was replaced with a medium containing 0.5%-1% fetal bovine serum to maintain the cells for 24 h for synchronization. A sterilized pipette tip was used to scratch a wound, the detached cells were washed off with PBS, and the samples to be tested were added. The incubation was continued in the 5% CO2 incubator at 37° C., and the migration of cells was observed under an optical microscope after 24 h.
The scratch migration experiment of cells can reflect the proliferation and repair ability of cells. A scratch assay was performed on the basis of HaCaT cells growing all over the dish, and the migration of cells was observed under an optical microscope 24 h after administration of the samples to evaluate the effect of the test samples on cell proliferation and migration.

[5] = system: Human keratinocytes (HaCaT); experiment: Determination of hyaluronic acid content; conditions: 10 ppm, 48 h, compared with blank control group, FIG. 9
Procedure: as §1
Polypeptide group: Peptide (26), peptide (33), peptide (39) and peptide (49). The test concentrations of all the above samples were 10 ppm.
A bottle of HaCaT cells in good exponential growth phase was taken. A 0.25% trypsin digestion solution was added so that digestion allowed the adherent cells to fall off, counting 1 to 4×10^6 cells/mL, which were prepared into a cell suspension.
The cells were inoculated into a 6-well plate at 10^5 cells/well, and grouped when the cells reached approximately 80% confluence. […]
After completion of the culture, cells were scraped off using a cell scraper, and 200 μL of RIPA lysis buffer was added to extract proteins. […] The total protein concentration was quantified to 1 mg/mL using the BCA method. […] The OD value of each well was measured in sequence at 570 nm using a microplate reader within 15 min.
Hyaluronic acid is one of the main matrix ingredients of the human skin epidermis and an important component of the skin barrier. […] This experiment measured the effect of the peptide of the present invention on the hyaluronic acid content to determine whether the peptide of the invention can increase the hyaluronic acid content and thus play a role in moisturizing and anti-aging repair.

Compound	collagen content (collagen I) compared with palmitoyl pentapeptide-4 [2]	order of effects on promoting the proliferation and migration of HaCaT cells [4]	activity of photoaged HaCaT keratinocytes ([1]; range of 1-200 ppm)	further results
Ac-Lys-Lys-Trp-Val-Thr-His-NH2 (Ac-KKWVTH-NH2) [peptide (39)]	more significantly increase the collagen content	peptide (33)>peptide (26)>peptide (49)>peptide (39)		activity of photoaged HaCaT keratinocytes ([1]; at 1 ppm, 100 ppm and 200 ppm): improve cell activity; HSF cell activity / proliferation of HSF fibroblasts ([3]; low concentration of 1-10 ppm): significantly increase cell activity and promote the proliferation of HSF fibroblasts
Ac-Lys-Pro-Leu-Trp-His-Val-OH (Ac-KPLWHV-OH) [peptide (32)]	more significantly increase the collagen content			
Ac-Lys-Pro-Leu-Trp-His-Val-NH2 (Ac-KPLWHV-NH2) [peptide (33)]	more significantly increase the collagen content	peptide (33)>peptide (26)>peptide (49)>peptide (39)	improve the activity of HaCaT keratinocytes to different degrees	
C[S+](C)[O-] [DMSO, dimethyl sulfoxide, reference compound]				HSF cell viability (positive control) ([3]; 2% DMSO, compared with blank control group): toxic effect on HSF cells
EGF: Positive control group: 50 U/mL of EGF [reference compound]				cell proliferation and migration of HaCaT cells (positive control) ([4]; 50 U/mL, compared with blank control group): obvious cell proliferation and migration
Ac-Lys-Arg-Tyr-Gly-Trp-NH2 (Ac-KRYGW-NH2) [peptide (49)]	more significantly increase the collagen content	peptide (33)>peptide (26)>peptide (49)>peptide (39)	improve the activity of HaCaT keratinocytes to different degrees	hyaluronic acid content [5]: more superior technical effects
Ac-Tyr-Gly-Trp-Lys-Lys-Gln-NH2 (Ac-YGWKKQ-NH2) [peptide (26)]	more significantly increase the collagen content	peptide (33)>peptide (26)>peptide (49)>peptide (39)	improve the activity of HaCaT keratinocytes to different degrees	hyaluronic acid content [5]: more superior technical effects
